Data set [1] deals with Protein cereblon/Kelch-like ECH-associated protein 1 (Mus musculus) (UniProt Q9Z2X8+Q8C7D2). Kind of data set: PROTAC activity at CRBN/Keap1 in mouse AML12 cells assessed as degradation of Keap1 protein at 1 uM incubated for 24 hrs by Western blotting analysis. It counts as cell-based.
The target of data set [2] is Kelch-like ECH-associated protein 1 (Homo sapiens, UniProt Q14145). The experiment in a line: Binding affinity to Keap1 (unknown origin) assessed as dissociation constant incubated for 200 sec by sensor chip immobilization based surface plasmon resonance analysis.
Data set [3] concerns AML12. The experiment in a line: Antioxidant activity against free fatty acid induced oxidative stress in mouse AML12 cells assessed as downregulation of Keap1 protein expression level incubated for 24 hrs by immunoblot analysis. The format is functional, cell-based.
The test system of data set [4] is AML12. Kind of data set: Antioxidant activity against free fatty acid induced oxidative stress in mouse AML12 cells assessed as upregulation of Nrf2 protein expression level incubated for 24 hrs by immunoblot analysis. The format is functional, cell-based. (In western blotting, separated proteins are transferred to a membrane and probed.)
Data set [5] concerns AML12. Kind of data set: Antioxidant activity against free fatty acid induced oxidative stress in mouse AML12 cells assessed as upregulation of HO-1 protein expression level incubated for 24 hrs by immunoblot analysis. It counts as functional, cell-based.
Data set [6] deals with AML12. Kind of data set: Antioxidant activity against free fatty acid induced oxidative stress in mouse AML12 cells assessed as upregulation of NQO1 protein expression level incubated for 24 hrs by immunoblot analysis. It counts as functional, cell-based.
The subject of data set [7] is AML12. Kind of data set: Antioxidant activity against free fatty acid induced oxidative stress in mouse AML12 cells assessed as increase in GSH level. The format is functional, cell-based.
Data set [8] has as its system AML12. The experiment in a line: Antioxidant activity against free fatty acid induced oxidative stress in mouse AML12 cells assessed as increase in SOD level. The format is functional, cell-based.
Data set [9] relates to AML12. The experiment in a line: Antioxidant activity against free fatty acid induced oxidative stress in mouse AML12 cells assessed as decrease in ROS level incubated for 24 hrs. It counts as functional, cell-based.
Data set [10] deals with Mus musculus. The experiment in a line: Antioxidant activity against MCD diet-induced oxidative stress in C57Bl/6 mouse model of NAFLD assessed as downregulation of liver Keap1 protein expression level at 1 mg/kg,ip administrated for 4 weeks by immunoblot analysis. The format is functional, organism-based.
For data set [11], the system named is Mus musculus. The experiment in a line: Antioxidant activity against MCD diet-induced oxidative stress in C57Bl/6 mouse model of NAFLD assessed as upregulation of liver Nrf2 protein expression level at 1 mg/kg,ip administrated for 4 weeks by immunoblot analysis. The format is functional, organism-based.
In data set [12] the test system is Mus musculus. The experiment in a line: Antioxidant activity against MCD diet-induced oxidative stress in C57Bl/6 mouse model of NAFLD assessed as downregulation of liver Keap1 protein expression level at 1 mg/kg,ip administrated for 4 weeks by immunohistochemical staining assay. It counts as functional, organism-based.
Data set [13] has as its system Mus musculus. Kind of data set: Antioxidant activity against MCD diet-induced oxidative stress in C57Bl/6 mouse model of NAFLD assessed as downregulation of liver Keap1 protein expression level at 1 mg/kg,ip administrated for 4 weeks by immunofluorescence staining analysis. It counts as functional, organism-based.
Data set [14] concerns Mus musculus. The experiment in a line: Antioxidant activity against MCD diet-induced oxidative stress in C57Bl/6 mouse model of NAFLD assessed as upregulation of liver Nrf2 protein expression level at 1 mg/kg,ip administrated for 4 weeks by immunofluorescence staining analysis. It counts as functional, organism-based.
For data set [15], the system named is Mus musculus. Kind of data set: Antioxidant activity against MCD diet-induced oxidative stress in C57Bl/6 mouse model of NAFLD assessed as upregulation of liver HO-1 protein expression level at 1 mg/kg,ip administrated for 4 weeks by immunohistochemical staining assay. The format is functional, organism-based.
Data set [16] concerns Mus musculus. Kind of data set: Antioxidant activity against MCD diet-induced oxidative stress in C57Bl/6 mouse model of NAFLD assessed as upregulation of liver NQO1 protein expression level at 1 mg/kg,ip administrated for 4 weeks by immunohistochemical staining assay. It counts as functional, organism-based.
For data set [17], the system named is Mus musculus. Kind of data set: Antioxidant activity against MCD diet-induced oxidative stress in C57Bl/6 mouse model of NAFLD assessed as increase in CAT level in liver at 1 mg/kg,ip administrated for 4 weeks. It counts as functional, organism-based.
The subject of data set [18] is Mus musculus. The experiment in a line: Antioxidant activity against MCD diet-induced oxidative stress in C57Bl/6 mouse model of NAFLD assessed as increase in SOD level in liver at 1 mg/kg,ip administrated for 4 weeks. The format is functional, organism-based.
For data set [19], the system named is Mus musculus. The experiment in a line: Antioxidant activity against MCD diet-induced oxidative stress in C57Bl/6 mouse model of NAFLD assessed as increase in GSH level in liver at 1 mg/kg,ip administrated for 4 weeks. It counts as functional, organism-based.
The test system of data set [20] is Mus musculus. Kind of data set: Antioxidant activity against MCD diet-induced oxidative stress in C57Bl/6 mouse model of NAFLD assessed as decrease in liver ROS level at 1 mg/kg,ip administrated for 4 weeks by immunostaining analysis. It counts as functional, organism-based.
Data set [21] deals with Mus musculus. The experiment in a line: Antioxidant activity against MCD diet-induced oxidative stress in C57Bl/6 mouse model of NAFLD assessed as reduction of serum TG level at 1 mg/kg,ip administrated for 4 weeks. It counts as functional, organism-based.
For data set [22], the system named is Mus musculus. The experiment in a line: Antioxidant activity against MCD diet-induced oxidative stress in C57Bl/6 mouse model of NAFLD assessed as decrease in histopathological change in liver at 1 mg/kg,ip administrated for 4 weeks by hematoxylin and eosin staining based assay. It counts as functional, organism-based.
Data set [23] can be described thus: Acute toxicity in zebrafish at < 2.5 uM observed at 120 hrs post fertilization. Details: species or system Danio rerio. To be noted: in vivo.
A short description of data set [24]: Acute toxicity in zebrafish assessed as pericardial edema at 5 uM observed at 120 hrs post fertilization. Details: species or system Danio rerio. As to conditions: in vivo.
The nature of data set [25]: Acute toxicity in zebrafish assessed as death at 5 uM observed at 120 hrs post fertilization. On the set-up: species or system Danio rerio. As to conditions: in vivo.
Data set [26] in a line: Acute toxicity in zebrafish assessed as death at 10 uM observed at 72 hrs post fertilization. On the set-up: species or system Danio rerio. To be noted: in vivo.
Data set [27] is described as follows: Acute toxicity in C57BL/6 mouse assessed as visceral damage at 20 mg/kg,ip qd administrated for 3 consecutive days and measured on day 4 by hematoxylin and eosin staining based assay. The format is organism-based. To be noted: in vivo.
Data set [28] in a line: Acute toxicity in C57BL/6 mouse assessed as histopathological change in heart at 20 mg/kg,ip qd administrated for 3 consecutive days and measured on day 4 by hematoxylin and eosin staining based assay. It counts as organism-based. To be noted: in vivo.
Data set [29] is described as follows: Acute toxicity in C57BL/6 mouse assessed as histopathological change in liver at 20 mg/kg,ip qd administrated for 3 consecutive days and measured on day 4 by hematoxylin and eosin staining based assay. It counts as organism-based. To be noted: in vivo.
Data set [30] is described as follows: Acute toxicity in C57BL/6 mouse assessed as histopathological change in lung at 20 mg/kg,ip qd administrated for 3 consecutive days and measured on day 4 by hematoxylin and eosin staining based assay. The format is organism-based. As to conditions: in vivo.
The nature of data set [31]: Acute toxicity in C57BL/6 mouse assessed as histopathological change in spleen at 20 mg/kg,ip qd administrated for 3 consecutive days and measured on day 4 by hematoxylin and eosin staining based assay. It counts as organism-based. As to conditions: in vivo.
Data set [32] in a line: Acute toxicity in C57BL/6 mouse assessed as visceral cellular damage at 20 mg/kg,ip qd administrated for 3 consecutive days and measured on day 4 by hematoxylin and eosin staining based assay. The format is organism-based. To be noted: in vivo.
Data set [33] can be described thus: Acute toxicity in C57BL/6 mouse assessed as visceral inflammatory cell infiltration at 20 mg/kg,ip qd administrated for 3 consecutive days and measured on day 4 by hematoxylin and eosin staining based assay. It counts as organism-based. To be noted: in vivo.

Activity calls are given as the source filed them. The rule behind the calls is not given here.

Sequence of Protein cereblon/Kelch-like ECH-associated protein 1 (Mus musculus) (Q8C7D2 whole entry, looked up): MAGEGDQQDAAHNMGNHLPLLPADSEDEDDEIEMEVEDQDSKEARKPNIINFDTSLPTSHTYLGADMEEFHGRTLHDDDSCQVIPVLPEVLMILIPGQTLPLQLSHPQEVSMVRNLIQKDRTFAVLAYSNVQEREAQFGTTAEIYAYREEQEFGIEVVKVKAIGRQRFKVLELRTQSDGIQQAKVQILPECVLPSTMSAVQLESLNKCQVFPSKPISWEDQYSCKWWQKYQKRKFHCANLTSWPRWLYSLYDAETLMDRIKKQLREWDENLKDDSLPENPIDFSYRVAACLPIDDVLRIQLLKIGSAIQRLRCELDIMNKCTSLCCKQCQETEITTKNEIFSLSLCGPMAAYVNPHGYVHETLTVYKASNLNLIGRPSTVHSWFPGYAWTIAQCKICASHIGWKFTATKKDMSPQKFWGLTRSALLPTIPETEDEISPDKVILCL
Sequence of Protein cereblon/Kelch-like ECH-associated protein 1 (Mus musculus) (Q9Z2X8 whole entry, looked up): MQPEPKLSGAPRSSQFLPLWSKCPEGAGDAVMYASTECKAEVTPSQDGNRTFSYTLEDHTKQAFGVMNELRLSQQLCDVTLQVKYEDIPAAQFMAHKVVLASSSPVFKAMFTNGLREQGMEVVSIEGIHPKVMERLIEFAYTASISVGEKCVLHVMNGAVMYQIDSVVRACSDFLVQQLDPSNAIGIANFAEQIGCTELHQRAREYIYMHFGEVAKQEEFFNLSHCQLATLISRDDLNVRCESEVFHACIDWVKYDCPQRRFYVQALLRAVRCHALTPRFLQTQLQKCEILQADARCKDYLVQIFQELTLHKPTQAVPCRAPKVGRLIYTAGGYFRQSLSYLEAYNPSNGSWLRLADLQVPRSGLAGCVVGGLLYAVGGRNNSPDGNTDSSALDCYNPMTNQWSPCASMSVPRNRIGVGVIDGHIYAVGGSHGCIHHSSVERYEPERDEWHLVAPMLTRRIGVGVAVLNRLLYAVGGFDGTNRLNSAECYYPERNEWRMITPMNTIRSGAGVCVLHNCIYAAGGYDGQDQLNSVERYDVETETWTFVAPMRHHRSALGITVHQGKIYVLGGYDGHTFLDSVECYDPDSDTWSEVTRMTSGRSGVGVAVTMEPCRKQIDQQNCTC
Sequence of Kelch-like ECH-associated protein 1 (Q14145 whole entry): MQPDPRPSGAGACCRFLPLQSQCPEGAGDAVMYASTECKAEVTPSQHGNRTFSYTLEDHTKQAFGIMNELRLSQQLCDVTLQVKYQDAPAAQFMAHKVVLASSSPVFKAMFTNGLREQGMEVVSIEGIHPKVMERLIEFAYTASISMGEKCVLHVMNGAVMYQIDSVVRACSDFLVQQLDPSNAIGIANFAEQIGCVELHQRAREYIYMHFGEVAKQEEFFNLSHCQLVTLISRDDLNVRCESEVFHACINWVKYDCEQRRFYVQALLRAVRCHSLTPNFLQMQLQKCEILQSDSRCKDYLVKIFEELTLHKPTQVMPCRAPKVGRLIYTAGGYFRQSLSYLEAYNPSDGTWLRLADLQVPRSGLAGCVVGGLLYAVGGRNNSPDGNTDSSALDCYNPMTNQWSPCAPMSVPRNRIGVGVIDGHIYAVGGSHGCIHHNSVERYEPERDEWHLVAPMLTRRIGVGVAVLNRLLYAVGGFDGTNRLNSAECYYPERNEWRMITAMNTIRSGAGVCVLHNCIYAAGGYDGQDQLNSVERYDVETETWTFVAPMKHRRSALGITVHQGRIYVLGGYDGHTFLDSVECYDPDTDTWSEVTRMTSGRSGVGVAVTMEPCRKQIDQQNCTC

For `Nc1cccc2c1C(=O)N(C1CCC(=O)NC1=O)C2=O` (stereo not given), in [1], the outcome was inactive.

As to `CN1C(=O)CCC(N2C(=O)c3cccc(NCCCCCNC(=O)[C@]45CCC(C)(C)C[C@H]4[C@H]4C(=O)C=C6C7(C)C=C(C#N)C(=O)C(C)(C)[C@@H]7CC[C@@]6(C)[C@]4(C)CC5)c3C2=O)C1=O` (single isomer, unassigned), the result in [1] was inactive.

As usually defined, the Kd is the concentration at which binding is half-saturated. As to `CC1(C)CC[C@]2(C(=O)O)CC[C@]3(C)[C@H](C(=O)C=C4[C@@]5(C)C=C(C#N)C(=O)C(C)(C)[C@@H]5CC[C@]43C)[C@@H]2C1` [BARDOXOLONE], the outcome (in data set [1]; in the data set on AML12 [3]; with AML12 [4]; in the data set with AML12 [5]; in the data set with AML12 [6]; with AML12 [7]) was inactive. Further, the result in the data set with Mus musculus [10], with Mus musculus [11], in the data set on Mus musculus [12], in the data set with Mus musculus [13], in the data set on Mus musculus [14] and in the data set with Mus musculus [15] was inactive. In addition, the result in the data set on Mus musculus [16] was inactive. Besides, the Kd in data set [2] was 48.7 µM. Also, the outcome in the data set with AML12 [8], in the data set on AML12 [9], with Mus musculus [17], with Mus musculus [18], in the data set with Mus musculus [19] and in the data set on Mus musculus [20] was Active. For the same compound, the result with Mus musculus [21] and with Mus musculus [22] was Active. Besides, the Activity result in [23] is “Non-Toxic”; in [24], “Toxic”; in [25], “Toxic”; in data set [26], “Toxic”; in data set [27], “Non-Toxic”; in [28] it was “Toxic”. Also, the Activity entry in data set [29], in data set [30], in data set [31], in data set [32] and in [33] was “Toxic” each time.

These data come from ChEMBL document CHEMBL5331129, “Discovery of NAFLD-Improving Agents by Promoting the Degradation of Keap1” (J Med Chem, 2023).
